Measured values as given in patent US11324726B2, “Small molecular Stemazole for promoting stem cell clonal formation and applications thereof” (BEIJING NORMAL UNIVERSITY, priority 2016, dated 2022).

Legend:
[1] = tested on: human hippocampal neurosphere stem cells; assay: Cell viability assay (ATP) of neurosphere stem cells (Example 6); format: cell-based; conditions: series concentrations, 4 days; maximum increase versus DMSO control
Procedure: 1) On a superclean bench and under sterile conditions, human embryo hippocampus was taken out;
2) After envelope and blood vessels were removed under a dissecting microscope, tissue obtained was rinsed with pre-cooled PBS at 4° C. 3-5 times, leaving a very small amount of PBS;
3) The tissue was cut into pieces using ophthalmic scissors, and about 5 ml of culture medium was added to suspend the tissue pieces, and then the obtained cell suspension was gently pipetted to achieve single cell state with a pipette tip;
4) The cell suspension was filtered through a 40 μm pore size cell sieve;
5) Cell density was regulated to 1×10^6/ml, and then the cells were inoculated into a […] glass culture flask;
6) The cells in the flask were cultured in a 37° C., 5% CO2 cell culture incubator.
The human hippocampal neurosphere stem cells were mechanically pipetted into small clones, regulated into a suitable density, and inoculated into a 96-well, black-wall plate at about 50 neurospheres/110 μL cell suspension/well. […] Without changing the medium, ATP was added at 20 μL/well after the compound acted for 4 days or other time, and the viability of cells was detected.

[2] = tested on: human embryonic stem cell strain H9 cells; assay: Single cell clone formation in single-cell culture, alkaline phosphatase and OCT-4 staining (Example 1); format: cell-based; conditions: 100 μM; for number of clones of alkaline phosphatase positive cells: H9 single cells on MEF feeder
Procedure: Alkaline Phosphatase Staining—
1) Rinsing cells with PBS, 3 times;
2) Fixing the cell with 4% paraformaldehyde for 10 minutes;
3) Washing with PBS, 3 times;
4) Preparing alkaline phosphatase staining agent:solution A:solution B:solution C=10 μl:10 μl:1 ml;
5) Adding the alkaline phosphatase staining agent to cover the cells, and staining for 20 minutes at room temperature in dark;
6) Aspirating off the staining agent, rinsing with PBS 3 times, storing the cells in PBS, and observing staining under a microscope.
Immunofluorescence Staining—
After being digested into single cells, human embryonic stem cell strain H9 cells were divided into two groups as follows, and inoculated on low density MEF feeder layer cells in 96-well plates:
(§1) Experiment group (ST group): complete medium+Stemazole dissolved in DMSO at a final concentration in the culture medium of 100 μM;
Control group (DMSO group): complete medium+DMSO with an amount corresponding to the experiment group.
The cell ratio of each well in the two groups was H9 cell/100 MEF cells, and the medium was supplemented once every 4 days.
Alkaline phosphatase staining was performed on day 4 and day 8. The results are shown in FIG. 1A: the number and sizes of the clones formed by the H9 cells in the DMSO group were less and smaller, while the number and sizes of the clones formed in ST group were higher and larger. […] The number of clones of alkaline phosphatase positive cells in the DMSO group averaged about 12 on day 8, and the number of clones of the alkaline phosphatase positive cells in the ST group averaged about 23, and the difference between the number of the clones in the two groups was significant. As to the size, the diameter of the alkaline phosphatase positive cells in the DMSO group on day 4 averaged about 50 microns, and the diameter of the alkaline phosphatase positive cells in the ST group averaged about 100 microns. There was no significant difference between the sizes of the clones in the two groups. The diameter of the alkaline phosphatase positive cells in the DMSO group on day 8 averaged about 70 microns, and the diameter of the alkaline phosphatase positive cells in the ST group averaged about 200 microns. There was a significant difference between the sizes of the clones in the two groups.
OCT-4 immunofluorescence staining was performed on day 1 and day 8.

[3] = tested on: Human embryonic stem cell line H9 cells; assay: Apoptosis in single-cell culture, Annexin V/PI flow cytometry (Example 2); format: cell-based; conditions: day 2 of inoculation; Stemazole 100 μM, Y27632 10 μM; DMSO group 54.1%
Procedure: Human embryonic stem cell line H9 cells were digested into single cells, divided into 3 groups as follows, and then inoculated at a low density on low-density MEF feeder layer cells in 6-well plates:
Experiment group (ST group): complete medium+Stemazole dissolved in DMSO at a concentration in the final culture medium of 100 μM;
Negative control group (DMSO group): complete medium+DMSO at an amount corresponding to the experiment group;
Positive control group (Y27632 group): complete medium+Y27632 dissolved in DMSO at a concentration in the final culture medium of 10 μM.
The cell ratio of each well of the three groups was 10 H9 cells/1 MEF cell.
Apoptosis was detected by flow cytometry using the specific apoptosis assay kit Annexin V/PI on day 2 of inoculation.

[4] = tested on: Human embryonic stem cell line H9 cells; assay: Apoptosis during total nutrient removal culture, Annexin V/PI flow cytometry (Example 3); format: cell-based; conditions: total nutrient removal for 15 hours; 100 μM; DMSO group about 43%, normal culture about 0.4%
Procedure: After passaged, human embryonic stem cell line H9 cells were divided into the following two groups and inoculated in 6-well plates:
Experiment group (ST group): total nutrient removal culture medium (complete medium with removal of serum and growth factor)+Stemazole dissolved in DMSO at a final concentration in the culture medium of 100 μM;
Control group (DMSO group): total nutrient removal culture medium+DMSO with an amount corresponding to the experiment group;
(§2) Normal culture group: complete medium.
Apoptosis was detected by flow cytometry using the specific apoptosis assay kit Annexin V/PI.

[5] = tested on: Human embryonic stem cell strain H1-9 cells; assay: Number of cells as a function of culture time in single-cell culture (Example 4); format: cell-based; conditions: 100 μM; complete medium; single-cell culture on MEF feeder
Procedure: Human embryonic stem cell strain H1-9 cells were digested into single cells, then divided into following three groups and inoculated on low-density MEF feeder layer cells in 6-well plates:
as §1
Control group (DMSO group): complete medium+DMSO with the amount corresponding to the experiment group;
as §2
The cells in each well of the three groups were maintained well grown on the MEF feeder layer cells, and the medium was supplemented once every 4 days.

[6] = tested on: H9 cells; assay: Expression of stem cell markers after total nutrient removal culture, quantitative PCR and immunofluorescence (Example 5 I); format: cell-based, human; conditions: 15 hours total nutrient removal culture; 100 μM
Procedure: Following the experimental method in Example 3, H9 cells were divided into experiment group (ST group) and control group (DMSO group) and cultured. After 15 hours of total nutrient removal culture, the expression of each of human embryonic stem cells' important markers OCT-4, Sox2, FDF4, KLF4, REX1, and Nanog was detected by quantitative PCR.
Ct (Cycle threshold) of each sample was measured by calculating 2^−^ΔΔ^Ct, to compare differential expression of specific gene between different samples. In order to reduce systematic error and sampling error, triplicate wells in parallel were set for each sample. The average value of the triplicate wells was taken as the Ct of the sample, and then 2^−^ΔΔ^Ct was calculated according to the formulas below. […]
In addition, still following the experimental method in Example 3, 1H9 cells were divided into experiment group (ST group), control group (DMSO group) and normal culture group and cultured. After total nutrient removal culture for 15 hours, the expression of each of human embryonic stem cells' important markers OCT-4 and E-Cadherin was detected by immunofluorescence staining.

[7] = tested on: H9 cells; assay: Ki67 proliferation marker immunofluorescence after total nutrient removal culture (Example 5 II); format: cell-based, human; conditions: 15 hours total nutrient removal culture; 100 μM
Procedure: Following the experimental method in Example 3, H9 cells were divided into experiment group (ST group), control group (DMSO group) and normal culture group and cultured. After total nutrient removal culture for 15 hours, immunofluorescence staining of the H9 cells was conducted for Ki67 (a proliferation marker).

[8] = tested on: H9 cells; assay: Embryoid body formation in total nutrient removal culture (Example 5 III); format: cell-based, human; conditions: measured at the 15th hour, 100 μM, compared to DMSO group
Procedure: Following the experimental method in Example 3, H9 cells were divided into experiment group (ST group), control group (DMSO group) and normal culture group and cultured. The formation of EBs was observed under a microscope at the 15th hour, and on day 2 and day 4 of total nutrient removal culture respectively, and the diameter and number of EBs were measured at the 15th hours.

[9] = tested on: H9 cells; assay: Induced differentiation into endoderm, mesoderm and ectoderm cells, marker expression (Example 5 IV); format: cell-based, human; conditions: nutrient starving 15 hours, then 4 days differentiation medium; 100 μM
Excerpt: Following the experimental method in Example 3, H9 cells were divided into experiment group (ST group), control group (DMSO group) and normal culture group and cultured.
The H9 cells were digested by Collagenase IV, washed with DMEM (high glucose) 3 times, and gently blown into small cell clusters, then were inoculated into 100 mm petri dishes with the culture medium changed into differentiation culture medium (DMEM/F12, 20% FBS, 1× non-essential amino acid, 1×sodium pyruvate, 1×β-mercaptoethanol, double antibiotics, and 2 mM glutamine). The medium was changed every 2 days, and the dishes were observed on each day. After 4 days, RNA was extracted and the differentiation ability of the H9 cells to endoderm, mesoderm and ectoderm cells was detected.

For `NNC(=S)Nc1ccc(-c2nnc(S)o2)cc1Br` [Br-Stemazole, 4-(2-br-4-(5-mercapto-1,3,4-oxadiazole-2-yl)phenyl)thiosemicarbazide], the “cell viability increase over the control group” value [1] was “up to 2.1 times”.

With `NNC(=S)Nc1ccc(-c2nnc(S)o2)cc1` [Stemazole, 4-(4-(5-mercapto-1,3,4-oxadiazole-2-yl)phenyl)thiosemicarbazide] the “OCT-4 immunofluorescence staining, single cell growth into monoclonal cells” value ([2]; day 1 and day 8) was “single cells had grown into monoclonal cells”, the “diameter of the alkaline phosphatase positive cells (clone size)” value ([2]; day 4, DMSO group about 50) was “about 100 microns” and the “number of clones of alkaline phosphatase positive cells” value ([2]; day 4, DMSO group about 8) was “about 18”. The “diameter of the alkaline phosphatase positive cells (clone size)” value ([2]; day 8, DMSO group about 70) was “about 200 microns”, the “number of clones of alkaline phosphatase positive cells” value ([2]; day 8, DMSO group about 12) was “about 23” and the “Annexin V positive apoptotic cells” value [3] was 25.2%. The apoptosis rate [4] was “about 8%”, the “number of cells as a function of time” value [5] was “did not increase” and the “expression of markers OCT-4, Sox2, FDF4, KLF4, REX1, Nanog by quantitative PCR” value [6] was “maintained the stem cell characteristics”. The “expression of markers OCT-4 and E-Cadherin by immunofluorescence staining” value [6] was “maintained the stem cell characteristics”, the “expression of proliferation marker Ki67” value [7] was “maintained the proliferation ability” and the “formation of EBs, diameter and number” value [8] was “more EBs with larger diameter”. The “expression of ectoderm marker GFAP” value [9] was “comparable to that of the normal control group cells”, the “expression of ectoderm marker Pax6” value [9] was “higher than that of normal control group cells” and the “expression of mesoderm marker MSX1” value [9] was “higher than that of normal control group cells”. The “cell viability increase over the control group” value [1] was “up to 2.7 times”.

With `C[C@@H](N)[C@H]1CC[C@H](C(=O)Nc2ccncc2)CC1` [Y27632, 4-[(1R)-1-aminoethyl]-N-(pyridine-4-yl)cyclohexane-1-carboxamide, reference compound] the “Annexin V positive apoptotic cells” value [3] was 20.1%.
